Reference: article PMC7504258, “New Hybrids of 4-Amino-2,3-polymethylene-quinoline and p-Tolylsulfonamide as Dual Inhibitors of Acetyl- and Butyrylcholinesterase and Potential Multifunctional Agents for Alzheimer’s Disease Treatment” (Molecules, 2020)

Columns and labels:
Porcine liver CES = experiment: CES inhibition (4-nitrophenyl acetate hydrolysis); assay type: biochemical; settings: inhibition at compound concentration 20 µM; mean ± SEM, n = 3
Method: (§1) All experiments were carried out in accordance with the standard protocols approved by IPAC RAS. Human erythrocyte AChE, equine serum BChE, porcine liver CES, acetylthiocholine iodide (ATCh), butyrylthiocholine iodide (BTCh), 5,5′-dithio-bis-(2-nitrobenzoic acid) (DTNB), and 4-nitrophenol acetate (4-NPA) were purchased from Sigma-Aldrich (Saint Louis, MO, USA).
Final enzyme and substrate (4-nitrophenyl acetate) concentrations were 0.02 unit/mL and 1 mM, respectively. Assays were carried out with a blank containing all constituents except porcine CES to assess non-enzymatic hydrolysis.
(§2) An initial evaluation of inhibitory activity of compounds was carried out by determination of the AChE, BChE and CES inhibition at a compound concentration of 20 µM. For this, a sample of the corresponding enzyme was incubated with the test compound for 5 min at 25 °C for temperature equilibration; then the enzyme residual activity was determined. Each experiment was performed in triplicate.
(§3) The test compounds were added to the assay solution and incubated with the enzyme at 25 °C for 5 min (for temperature equilibration) followed by the addition of substrate. A parallel control was made for the assay solution with no inhibitor.
(§4) Measurements were performed in the FLUOStar OPTIMA microplate spectrophotometer (BMG Labtech, Ortenberg, Germany). Each experiment for the IC50 assay was performed in triplicate. The results were expressed as the mean ± SEM. The reaction rates in the presence and absence of inhibitor were compared, and the percent residual enzyme activity due to the presence of test compounds was calculated. IC50 values were determined graphically from inhibition curves (log inhibitor concentration vs. percent residual enzyme activity) using Origin 6.1 software (OriginLab, Northampton, MA, USA).

Equine serum BChE = molecular target: T1, Equine serum BChE (Equus caballus, UniProt P81908); experiment: biochemical; settings: for IC50: mean ± SEM, n = 3, pH 7.5, 25 °C; for Selectivity, S = IC50 AChE/IC50 BChE: ratio IC50 AChE/IC50 BChE
T1 construct: two enzymes of non-human origin: equine serum BChE and porcine liver CES; purchased Sigma-Aldrich; host or cells: equine serum
T1 sequence (P81908 whole entry): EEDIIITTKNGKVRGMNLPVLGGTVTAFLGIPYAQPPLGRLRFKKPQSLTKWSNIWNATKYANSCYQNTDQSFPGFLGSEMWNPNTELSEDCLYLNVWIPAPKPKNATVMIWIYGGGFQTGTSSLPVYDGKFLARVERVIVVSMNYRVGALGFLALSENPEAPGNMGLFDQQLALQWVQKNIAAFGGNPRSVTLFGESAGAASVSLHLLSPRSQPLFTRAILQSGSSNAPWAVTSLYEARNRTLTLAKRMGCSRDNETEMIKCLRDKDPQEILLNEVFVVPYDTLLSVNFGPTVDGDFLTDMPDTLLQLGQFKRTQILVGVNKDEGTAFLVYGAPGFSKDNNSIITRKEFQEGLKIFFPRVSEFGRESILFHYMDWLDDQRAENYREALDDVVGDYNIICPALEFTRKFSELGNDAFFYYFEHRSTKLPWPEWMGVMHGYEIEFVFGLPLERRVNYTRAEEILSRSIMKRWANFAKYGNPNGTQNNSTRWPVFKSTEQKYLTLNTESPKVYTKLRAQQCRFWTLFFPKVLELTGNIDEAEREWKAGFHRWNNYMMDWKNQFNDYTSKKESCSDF
Method: as §1
(§5) AChE and BChE activities were measured by the colorimetric method of Ellman et al.. The assay solution consisted of 0.1 M K/Na phosphate buffer pH 7.5, 25 °C, 0.33 mM DTNB, 0.02 unit/mL AChE or BChE, and 1 mM substrate (ATCh or BTCh, respectively). Reagent blanks consisted of reaction mixtures without substrates.
as §2, §3, §4

Human erythrocyte AChE = molecular target: T2, Human erythrocyte AChE (Homo sapiens, UniProt P22303); experiment: biochemical; settings: mean ± SEM, n = 3; pH 7.5, 25 °C
T2 construct: AChE from human erythrocytes was used; purchased Sigma-Aldrich; host or cells: human erythrocytes
T2 sequence (P22303 other isoform, or with tags, fused parts or gaps): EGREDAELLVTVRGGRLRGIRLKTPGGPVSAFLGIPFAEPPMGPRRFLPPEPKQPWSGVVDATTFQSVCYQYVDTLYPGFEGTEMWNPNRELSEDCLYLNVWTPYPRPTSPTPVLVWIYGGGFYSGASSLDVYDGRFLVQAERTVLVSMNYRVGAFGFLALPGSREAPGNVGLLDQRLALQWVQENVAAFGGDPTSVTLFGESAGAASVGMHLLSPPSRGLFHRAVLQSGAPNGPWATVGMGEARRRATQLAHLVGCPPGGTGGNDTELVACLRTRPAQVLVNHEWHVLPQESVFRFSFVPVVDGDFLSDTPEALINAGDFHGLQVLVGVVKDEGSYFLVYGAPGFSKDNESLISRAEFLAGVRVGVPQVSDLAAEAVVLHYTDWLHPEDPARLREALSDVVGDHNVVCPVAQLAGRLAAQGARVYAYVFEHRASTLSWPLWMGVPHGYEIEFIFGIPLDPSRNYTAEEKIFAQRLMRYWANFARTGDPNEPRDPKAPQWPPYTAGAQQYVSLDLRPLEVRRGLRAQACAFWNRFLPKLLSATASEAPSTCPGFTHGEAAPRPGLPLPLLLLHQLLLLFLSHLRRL
Method: as §1, §5, §2, §3, §4

EeAChE PAS = EeAChE PAS (Electrophorus electricus, UniProt O42275); experiment: Propidium iodide displacement from the PAS of EeAChE (fluorescence); assay type: binding; settings: compound concentration 20 µM; mean ± SEM, n = 3
Sequence of EeAChE PAS (O42275 24-633): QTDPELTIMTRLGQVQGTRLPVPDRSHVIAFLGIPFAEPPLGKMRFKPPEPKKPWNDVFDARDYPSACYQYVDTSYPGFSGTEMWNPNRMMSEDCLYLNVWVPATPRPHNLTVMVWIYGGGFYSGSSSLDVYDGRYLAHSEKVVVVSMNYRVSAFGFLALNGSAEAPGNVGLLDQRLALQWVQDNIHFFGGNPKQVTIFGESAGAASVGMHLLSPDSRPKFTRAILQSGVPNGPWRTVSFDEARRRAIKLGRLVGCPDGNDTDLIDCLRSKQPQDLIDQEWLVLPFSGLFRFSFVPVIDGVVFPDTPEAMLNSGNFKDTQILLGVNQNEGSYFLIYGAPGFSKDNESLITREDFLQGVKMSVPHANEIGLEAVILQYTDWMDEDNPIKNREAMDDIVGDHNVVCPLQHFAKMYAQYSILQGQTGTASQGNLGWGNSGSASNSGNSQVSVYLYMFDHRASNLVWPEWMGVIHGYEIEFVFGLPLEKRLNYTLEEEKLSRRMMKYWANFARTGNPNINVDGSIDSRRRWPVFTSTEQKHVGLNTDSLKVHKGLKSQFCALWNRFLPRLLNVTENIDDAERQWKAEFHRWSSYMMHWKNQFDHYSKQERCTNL
Method: EeAChE was used owing to its high degree of purification, high activity, and lower cost than human AChE (hAChE).
To determine the degree of displacement (% displacement) of propidium from the PAS of AChE, EeAChE (final concentration, 7 μM) was incubated with the test compound at a concentration of 20 μM in 1 mM Tris-HCl buffer pH 8.0, 25 °C, for 15 min. Then, propidium iodide solution (final concentration, 8 μM) was added, the samples were incubated for 15 min and the fluorescence spectrum (530 nm (excitation) and 600 nm (emission)) was taken. […] The blank contained propidium iodide of the same concentration in 1 mM Tris-HCl buffer pH 8.0. The measurements were carried out in triplicate on the FLUOStar Optima microplate reader (BMG Labtech), and the results were calculated by the following formula:% Displacement = 100 − (IFAChE+ Propidium + inhibitor/IFAChE + Propidium) × 100(1) where IFAChE + Propidium is the fluorescence intensity of the propidium associated with AChE in the absence of the test compound (taken as 100%), and IFAChE + Propidium + inhibitor is the fluorescence intensity of the propidium associated with AChE in the presence of the test compound.

BChE = molecular target: T3, BChE (Equus caballus, UniProt P81908); experiment: Kinetic study of BChE inhibition, steady-state inhibition constants; assay type: biochemical
T3 construct: two enzymes of non-human origin: equine serum BChE and porcine liver CES; purchased Sigma-Aldrich; host or cells: equine serum
T3 sequence (P81908 whole entry): as the sequence (P81908 whole entry) above
Method: (§6) • Kinetic Study of AChE and BChE Inhibition. Determination of Steady-State Inhibition Constants
(§7) Mechanisms of AChE and BChE inhibition were assessed via a thorough analysis of enzyme kinetics. Residual activity was measured following 5 min incubation at 25 °C (for temperature equilibration) with three increasing concentrations of inhibitor and six decreasing substrate concentrations. Substrate was added immediately after the 5 min incubation with inhibitor and the rates of absorption were monitored at 412 nm using the FLUOStar OPTIMA (BMG Labtech) microplate spectrophotometer. Inhibition constants Ki (competitive component) and αKi (noncompetitive component) were determined by linear regression of 1/V versus 1/[S] double-reciprocal (Lineweaver-Burk) plots using Origin 6.1 software. Data were expressed as mean ± SEM (n = 3 experiments).

AChE = molecular target: T4, AChE (Homo sapiens, UniProt P22303); experiment: Kinetic study of AChE inhibition, steady-state inhibition constants; assay type: biochemical; settings: for Type of AChE inhibition: changes in both Km and Vmax
T4 construct: AChE from human erythrocytes was used; purchased Sigma-Aldrich; host or cells: human erythrocytes
T4 sequence (P22303 other isoform, or with tags, fused parts or gaps): as the sequence (P22303 other isoform, or with tags, fused parts or gaps) above
Method: as §6, §7

[1] = system: AChE-induced Aβ aggregation; settings: at 100 µM; cited from earlier work

Compound | Porcine Liver CES, (%) (Porcine liver CES) | IC50 (Equine serum BChE) | Selectivity, S = IC50 AChE/IC50 BChE (Equine serum BChE) | IC50 (Human erythrocyte AChE) | Displacement of Propidium from the EeAChE PAS (EeAChE PAS) | αKi (noncompetitive component), BChE (BChE; Lineweaver-Burk analysis) | Ki (BChE; Lineweaver-Burk analysis, read-out: Ki (competitive component), BChE) | Type of BChE inhibition (BChE; changes in both Km and Vmax) | αKi (noncompetitive component), AChE (AChE; Lineweaver-Burk analysis) | Ki (AChE; Lineweaver-Burk analysis, read-out: Ki (competitive component), AChE) | Type of AChE inhibition (AChE) | decrease in AChE-induced Aβ aggregation [1]
Cc1ccc(S(=O)(=O)NCCNc2c3c(nc4ccccc24)CCC3)cc1 [7a, N-(2-(2,3-Dihydro-1H-cyclopenta[b]quinolin-9-ylamino)-ethyl)-4-methyl-benzenesulfonamide] | 11.9 ± 1.5% | 0.924 ± 0.031 µM | 9.8 | 9.03 ± 0.64 µM | 9.2 ± 1.0% | – | – | – | – | – | – | –
Cc1ccc(S(=O)(=O)NCCCNc2c3c(nc4ccccc24)CCC3)cc1 [7b, N-(3-(2,3-Dihydro-1H-cyclopenta[b]quinolin-9-ylamino)-propyl)-4-methyl-benzenesulfonamide] | 8.1 ± 0.6% | 0.327 ± 0.004 µM | 23.7 | 7.76 ± 0.61 µM | 12.3 ± 1.1% | – | – | – | – | – | – | –
Cc1ccc(S(=O)(=O)NCCCCNc2c3c(nc4ccccc24)CCC3)cc1 [7c, N-(4-(2,3-Dihydro-1H-cyclopenta[b]quinolin-9-ylamino)-butyl)-4-methyl-benzenesulfonamide] | 9.0 ± 0.1% | 0.578 ± 0.025 µM | 3.6 | 2.08 ± 0.08 µM | 14.9 ± 1.2% | – | – | – | – | – | – | –
Cc1ccc(S(=O)(=O)NCCCCCNc2c3c(nc4ccccc24)CCC3)cc1 [7d, N-(5-(2,3-Dihydro-1H-cyclopenta[b]quinolin-9-ylamino)-pentyl)-4-methyl-benzenesulfonamide] | 29.6 ± 1.2% | 0.459 ± 0.044 µM | 4.3 | 1.97 ± 0.05 µM | 15.1 ± 1.4% | – | – | – | – | – | – | –
Cc1ccc(S(=O)(=O)NCCCCCCNc2c3c(nc4ccccc24)CCC3)cc1 [7e, N-(6-(2,3-Dihydro-1H-cyclopenta[b]quinolin-9-ylamino)-hexyl)-4-methyl-benzenesulfonamide] | 18.6 ± 0.2% | 0.209 ± 0.008 µM | – | 4 ± 0.09 µM | 15.9 ± 1.3% | – | – | – | – | – | – | –
Cc1ccc(S(=O)(=O)NCCCNc2c3c(nc4ccccc24)CCCC3)cc1 [7f, 4-Methyl-N-(3-(1,2,3,4-tetrahydro-acridin-9-ylamino)-propyl)-benzenesulfonamide] | 2.0 ± 0.8% | 0.11 ± 0.005 µM | 17.1 | 1.88 ± 0.03 µM | 9.8 ± 0.8% | – | – | – | – | – | – | –
Cc1ccc(S(=O)(=O)NCCCCNc2c3c(nc4ccccc24)CCCC3)cc1 [7g, 4-Methyl-N-(4-(1,2,3,4-tetrahydro-acridin-9-ylamino)-butyl)-benzenesulfonamide] | 17.1 ± 1.4% | 0.0617 ± 0.0003 µM | 10.8 | 0.668 ± 0.17 µM | 14.8 ± 1.3% | 0.117 ± 0.002 µM | 0.0235 ± 0.0002 µM | mixed type of inhibition | 1.09 ± 0.02 µM | 0.39 ± 0.008 µM | mixed type of inhibition | –
Cc1ccc(S(=O)(=O)NCCCCCNc2c3c(nc4ccccc24)CCCC3)cc1 [7h, 4-Methyl-N-(5-(1,2,3,4-tetrahydro-acridin-9-ylamino)-pentyl)-benzenesulfonamide] | 6.7 ± 0.8% | 0.068 ± 0.0014 µM | 1.9 | 0.131 ± 0.01 µM | 17.5 ± 1.5% | – | – | – | – | – | mixed-type AChE inhibitor | –
Cc1ccc(S(=O)(=O)NCCCNc2c3c(nc4ccccc24)CCCCC3)cc1 [7i, 4-Methyl-N-(3-(7,8,9,10-tetrahydro-6H-cyclohepta[b]quinolin-11-ylamino)-propyl)-benzenesulfonamide] | 1.9 ± 0.9% | 0.0431 ± 0.0011 µM | 64.0 | 2.76 ± 0.04 µM | 13.9 ± 1.3% | – | – | – | – | – | – | –
Cc1ccc(S(=O)(=O)NCCCCNc2c3c(nc4ccccc24)CCCCC3)cc1 [7j, 4-Methyl-N-(4-(7,8,9,10-tetrahydro-6H-cyclohepta[b]quinolin-11-ylamino)-butyl)-benzenesulfonamide] | 10.3 ± 0.8% | 0.0788 ± 0.006 µM | 14.7 | 1.16 ± 0.03 µM | 16.1 ± 1.4% | – | – | – | – | – | – | –
Cc1ccc(S(=O)(=O)NCCCNc2c3c(nc4ccccc24)CCCCCC3)cc1 [7k, N-(3-(6,7,8,9,10,11-Hexahydro-cycloocta[b]quinolin-12-ylamino)-propyl)-4-methyl-benzenesulfonamide] | 5.2 ± 1.5% | 0.461 ± 0.007 µM | 24.1 | 11.1 ± 0.2 µM | 15.9 ± 1.7% | – | – | – | – | – | – | –
O=[N+]([O-])c1ccc(OP(=O)(O)Oc2ccc([N+](=O)[O-])cc2)cc1 [BNPP, bis-4-nitrophenyl phosphate, reference compound] | 1.80 ± 0.11% | – | – | – | – | – | – | – | – | – | – | –
CC[N+](C)(CC)CCC[n+]1c(-c2ccccc2)c2cc(N)ccc2c2ccc(N)cc21 [Propidium] | – | – | – | – | – | – | – | – | – | – | – | 82%
